Measurements published in the NIST ThermoML archive (doi:10.1016/j.jct.2017.03.006).

Experiment: xn = mol fraction of the nth substance listed
Settings: Liquid; for mass density: 293.15 K, Vibrating tube method; for viscosity: Concentric cylinders viscometry

Cc1ccc(C)c(C)c1 [1,2,4-trimethylbenzene] + CCCCO
mass density [kg/m3]
Settings	x2 = 0	x2 = 0.1005	x2 = 0.2261	x2 = 0.2999	x2 = 0.3966	x2 = 0.5289	x2 = 0.6367	x2 = 0.7249	x2 = 0.7977	x2 = 0.9131
100 kPa	–	–	–	859.9	854.5	846.5	839.4	833.1	827.5	817.8
1000 kPa	875.7	870.8	864.3	860.4	855	847.1	840	833.7	828.1	818.4
5000 kPa	878.2	873.4	867	863.1	857.8	849.8	842.8	836.5	831	821.3
10000 kPa	881.4	876.6	870.2	866.4	861.1	853.1	846.1	839.9	834.3	824.7
20000 kPa	887.3	882.6	876.2	872.5	867.2	859.4	852.3	846.2	840.6	831.1
30000 kPa	892.9	888.3	881.9	878.2	873	865.2	858.2	852.1	846.5	837.1
40000 kPa	898.2	893.7	887.4	883.6	878.5	870.7	863.7	857.6	852.1	842.7
50000 kPa	903.2	898.7	892.4	888.8	883.6	875.8	868.9	862.8	857.3	847.9
60000 kPa	908	903.5	897.3	893.6	888.6	880.8	873.8	867.8	862.3	852.9
70000 kPa	912.6	908.3	901.9	898.4	893.2	885.5	878.6	872.6	867	857.7
80000 kPa	916.9	912.6	906.4	902.8	897.6	890	883	877	871.6	862.3
90000 kPa	921.1	916.8	910.6	907	901.9	894.2	887.4	881.3	875.9	866.6
100000 kPa	925.1	920.8	914.7	911.1	906	898.4	891.5	885.4	880	870.7
120000 kPa	932.8	928.6	922.5	918.9	913.9	906.2	899.3	893.3	887.9	878.7
140000 kPa	939.9	935.6	929.8	926	921.1	913.5	906.7	900.7	895.4	886.1

viscosity [mPa·s], 100 kPa
Settings	x2 = 0	x2 = 0.1002	x2 = 0.2327	x2 = 0.3	x2 = 0.3969	x2 = 0.53	x2 = 0.637	x2 = 0.7975	x2 = 0.9131
303.15 K	0.779	0.783	0.818	0.857	0.919	1.049	1.203	1.559	1.916
313.15 K	0.692	0.69	0.716	0.744	0.787	–	–	–	–
